{"source": "patent US20230073368A1", "about": "“THERAPY OF RAS-DEPENDENT CANCERS” (Turun Yliopisto, priority 2020, published 2023)", "test_system": "PANC-1 cells", "test": "Proliferation assay of SHANK3 silenced PANC-1 cells treated with ERK and MEK inhibitors", "format": "cell-based, human", "conditions": "dose-dependent, 7.8 nM-8 μM gradient", "experimental": "Proliferation Assay of SHANK3 Silenced PANC-1 Cells Treated with ERK and MEK Inhibitors\nCells were seeded on a 96-well plate (2000-5000 cells/well) a day before transfection and silenced the next day when cell confluence was approximately 30%. Next day after silencing, medium was changed to full medium containing DMSO (control), Trametinib, Selumetinib (ADZ6244) or selective ERK1/2 inhibitor (SCH772984) in dose-dependent manner (concentration gradient: 0, 7.8 nM, 15.5 nM 31.3 nM 62.5 nM, 125 nM, 250 nM, 500 nM, 1 μM, 2 μM, 4 μM and 8 μM). Proliferation was measured using IncuCyte S3 as described above."}
{"smiles": "O=C(Nc1ccc2[nH]nc(-c3ccncc3)c2c1)[C@@H]1CCN(CC(=O)N2CCN(c3ccc(-c4ncccn4)cc3)CC2)C1", "note": "[SCH772984]", "values": [{"measurement": "rescue of cell viability lost by SHANK3-silencing", "value": "abolished a loss of cell viability induced by SHANK3-silencing"}]}
